Assay results as given in patent publication US7217865B2, “Transgenic high tryptophan plants” (Monsanto Technology LLC, priority 2001, dated 2007).
Like-named read-outs stand apart in the source and are kept apart here.

Legend:
[1] = molecular target: Agrobacterium tumefaciens anthranilate synthase variant S50K, SEQ ID NO:69 (Agrobacterium fabrum, UniProt A9CI26, S50K); test: Anthranilate synthase enzyme assay and kinetic analysis, S50K mutant; type: biochemical
Excerpt: (§1) Site directed mutagenesis was used to generate ten single amino acid substitutions six sites. The mutations were introduced into the Agrobacterium tumefaciens AS in pMON34705 using the QuikChange™ Site-Directed Mutagenesis Kit (Stratagene). The primers used for site directed mutagenesis were SEQ ID NO:9–42 (FIG. 7; F=forward, R=reverse). Each primer sequence is specific for alteration of the nucleic acid at a specific location in the sequence and thus changing the encoded codon to code for a new amino acid. For example, S51C designates a change from serine to cysteine at amino acid position 51 in the Agrobacterium tumefaciens AS peptide sequence.
(§2) Following mutagenesis the sequence of the entire gene was reconfirmed and the variants expressed and purified from E. coli as described below for the wild type enzyme. The resultant plasmids comprising mutant Agrobacterium tumefaciens AS are suitably cloned into a plasmid for overproduction of protein using the T7 expression system as described in Example 1.
(§3) Agrobacterium tumefaciens AS wild type and mutant enzymes were expressed in E. coli as described in Example 1. The purification of all the Agrobacterium tumefaciens AS enzymes, including wild type and mutants therof, was performed at 4° C. The cells (approximate wet weight of 1 g) were suspended in 20 ml of purification buffer (50 mM potassium phosphate, pH […], 10 mM 2-mercaptoethanol, 10% glycerol) and lysed by ultrasonication (Branson sonifier Cell Disruptor, W185). Supernatant was collected after centrifugation of the homogenate at 20,000× g for 15 min. The supernatant was subjected to ammonium sulfate fractionation (30 to 65% saturation). The precipitate was collected after centrifugation at 20,000× g for […] and dissolved in 3 ml of the purification buffer and then loaded as a whole on an Econo-Pac 10DG desalting column, pre-equilibrated with the same buffer. Fractions containing the enzyme were detected by the developed assay and pooled. The pooled enzyme (4.3 mls) was loaded on a 10 ml DEAE Sephacel (Pharmacia Biotech) column (1.5×7.5 cm) equilibrated with the same buffer. The column was washed with 30 ml of the purification buffer and the enzyme was eluted with 30 ml of 50 mM NaCl in the same buffer. Fractions containing high AS activity were pooled and precipitated by 65% ammonium sulfate saturation and isolated and desalted as above. Fractions containing the enzyme were pooled and stored at −80° C.
(§4) The standard assay for Agrobacterium tumefaciens AS was performed at 25° C. in an assay buffer containing 100 mM potassium phosphate, pH 7.0, 1 0 mM MgCl2, 1 mM dithiothreitol, 200 μM chorismate and 10 mM L-glutamine. The reaction was started by adding 30 μl of enzyme to the reaction mixture and mixing. The formation of anthranilate was directly monitored by the absorbance increase at […] for 3 min. Initial rate of reaction was calculated as unit absorbance increase per second based on the slope of the absorbance change over the reaction time. Km for chorismate (Km^Cho) was determined in the total volume of 1 ml assay buffer containing 100 mM potassium phosphate, pH 7.0, 10 mM MgCl2, 1 mM dithiothreitol with 10 mM L-glutamine and varying the concentration of chorismate between 2.5–100 μM chorismate. […] Kinetic parameters and IC50 of AS were calculated after fitting the data to a non-linear regression program (GraFit).

[2] = molecular target: Agrobacterium tumefaciens anthranilate synthase variant S51F, SEQ ID NO:60 (Agrobacterium fabrum, UniProt A9CI26, S51F); test: Anthranilate synthase enzyme assay and kinetic analysis, S51F mutant; type: biochemical
Excerpt: as §1, §2, §3, §4

[3] = molecular target: Agrobacterium tumefaciens anthranilate synthase variant P293A, SEQ ID NO:63 (Agrobacterium fabrum, UniProt A9CI26, P293A); test: Anthranilate synthase enzyme assay and kinetic analysis, P293A mutant; type: biochemical
Excerpt: as §1, §2, §3, §4

[4] = molecular target: Agrobacterium tumefaciens anthranilate synthase (AgroAS), wild type, SEQ ID NO:4 (Agrobacterium fabrum, UniProt A9CI26); test: Anthranilate synthase enzyme assay and kinetic analysis, wild type; type: biochemical
Method: as §3
The standard assay for Agrobacterium tumefaciens AS was performed at 25° C. in an assay buffer containing 100 mM potassium phosphate, pH 7.0, 1 0 mM MgCl2, 1 mM dithiothreitol, 200 μM chorismate and 10 mM L-glutamine. The reaction was started by adding 30 μl of enzyme to the reaction mixture and mixing. The formation of anthranilate was directly monitored by the absorbance increase at […] for 3 min. Initial rate of reaction was calculated as unit absorbance increase per second based on the slope of the absorbance change over the reaction time. Km for chorismate (Km^Cho) was determined in the total volume of 1 ml assay buffer containing 100 mM potassium phosphate, pH 7.0, 10 mM MgCl2, 1 mM dithiothreitol with 10 mM L-glutamine and varying the concentration of chorismate between 2.5–100 μM chorismate. The Km for glutamine (Km^Gln) was determined in the total volume of 1 ml assay buffer containing 100 mM potassium phosphate, pH 7.0, 10 mM MgCl2, 1 mM dithiothreitol with 200 μM chorismate and varying the concentration of L-glutamine between 0.1–2 mM L-glutamine. IC50 for tryptophan (IC50TrP) was determined with in the total volume of 1 ml assay buffer containing 100 mM potassium phosphate, pH 7.0, 10 mM MgCl2, 1 mM dithiothreitol, 10 mM L-glutamine, 200 μM chorismate and varying the concentration of L-tryptophan between 0.1–10 mM L-tryptophan. Kinetic parameters and IC50 of AS were calculated after fitting the data to a non-linear regression program (GraFit).

[5] = molecular target: Agrobacterium tumefaciens anthranilate synthase variant S51C, SEQ ID NO:61 (Agrobacterium fabrum, UniProt A9CI26, S51C); test: Anthranilate synthase enzyme assay and kinetic analysis, S51C mutant; type: biochemical
Excerpt: as §1, §2, §3, §4

[6] = molecular target: Agrobacterium tumefaciens anthranilate synthase variant V48Y, SEQ ID NO:59 (Agrobacterium fabrum, UniProt A9CI26, V48Y); test: Anthranilate synthase enzyme assay and kinetic analysis, V48Y mutant; type: biochemical
Excerpt: as §1, §2, §3, §4

[7] = molecular target: Agrobacterium tumefaciens anthranilate synthase variant V48F, SEQ ID NO:58 (Agrobacterium fabrum, UniProt A9CI26, V48F); test: Anthranilate synthase enzyme assay and kinetic analysis, V48F mutant; type: biochemical
Excerpt: as §1, §2, §3, §4

[8] = molecular target: Agrobacterium tumefaciens anthranilate synthase variant N52F, SEQ ID NO:62 (Agrobacterium fabrum, UniProt A9CI26, N52F); test: Anthranilate synthase enzyme assay and kinetic analysis, N52F mutant; type: biochemical
Excerpt: as §1, §2, §3, §4

[9] = molecular target: Agrobacterium tumefaciens anthranilate synthase variant P293G, SEQ ID NO:64 (Agrobacterium fabrum, UniProt A9CI26, P293G); test: Anthranilate synthase enzyme assay and kinetic analysis, P293G mutant; type: biochemical
Excerpt: as §1, §2, §3, §4

[10] = tested on: C=C(O[C@@H]1C=C(C(=O)O)C=C[C@H]1O)C(=O)O; test: Anthranilate synthase enzyme assay and kinetic analysis, V48Y mutant; type: biochemical, Agrobacterium tumefaciens; details: other: V48Y, pH 7.0, 10 mM L-glutamine, 2.5–100 μM chorismate, 25.0 °C
Excerpt: as §1, §2, §3, §4

[11] = tested on: NC(=O)CC[C@H](N)C(=O)O; test: as above; type: biochemical, Agrobacterium tumefaciens; details: other: V48Y, pH 7.0, 200 μM chorismate, 0.1–2 mM L-glutamine, 25.0 °C
Excerpt: as §1, §2, §3, §4

[12] = tested on: C=C(O[C@@H]1C=C(C(=O)O)C=C[C@H]1O)C(=O)O; test: Anthranilate synthase enzyme assay and kinetic analysis, V48F mutant; type: biochemical, Agrobacterium tumefaciens; details: other: V48F, pH 7.0, 10 mM L-glutamine, 2.5–100 μM chorismate, 25.0 °C
Excerpt: as §1, §2, §3, §4

[13] = tested on: NC(=O)CC[C@H](N)C(=O)O; test: as above; type: biochemical, Agrobacterium tumefaciens; details: other: V48F, pH 7.0, 200 μM chorismate, 0.1–2 mM L-glutamine, 25.0 °C
Excerpt: as §1, §2, §3, §4

Question: `N[C@@H](Cc1c[nH]c2ccccc12)C(=O)O` [L-tryptophan] was tested. Which IC50 [1] did it give?
Answer: The IC50 was 0.1 µM.

Question: And the IC50 [2]?
Answer: Its IC50 is greater than 32000 µM.

Question: What about the IC50 [3] of the same compound?
Answer: The IC50 was 14 µM.

Question: And the IC50 [4]?
Answer: Its IC50 is 5 µM.

Question: And the IC50 ([4]; read-out: IC50^trp, wild type, Table J (5-MT resistant clones))?
Answer: Its IC50 is 5 µM.

Question: And the IC50 [5]?
Answer: Its IC50 is 1500 µM.

Question: What about the IC50 [6] of the same compound?
Answer: Its IC50 is 650 µM.

Question: And the IC50 [7]?
Answer: Its IC50 is 150 µM.

Question: And the IC50 [8]?
Answer: The IC50 was 41 µM.

Question: And the IC50 [9]?
Answer: The IC50 was 17 µM.

Question: How did the Km [10] turn out when “Agrobacterium tumefaciens anthranilate synthase variant V48Y, SEQ ID NO:59 (Agrobacterium fabrum str. C58; V48Y)” was run?
Answer: The Km was 4.2 µM.

Question: What about the kcat [10] of the same compound?
Answer: The kcat was 0.18 s⁻¹.

Question: What about the kcat/Km [10] of the same compound?
Answer: Its kcat/Km is 42800 M⁻¹ s⁻¹.

Question: What about the Km [11] of the same compound?
Answer: Its Km is 100 µM.

Question: “Agrobacterium tumefaciens anthranilate synthase variant V48F, SEQ ID NO:58 (Agrobacterium fabrum str. C58; V48F)” was tested. Which Km [12] did it give?
Answer: The Km was 4.5 µM.

Question: What about the kcat [12] of the same compound?
Answer: The kcat was 0.24 s⁻¹.

Question: What about the kcat/Km [12] of the same compound?
Answer: The kcat/Km was 53300 M⁻¹ s⁻¹.

Question: And the Km [13]?
Answer: The Km was 80 µM.
